A short description of data set [1]: Hydrolysis and aspirin release in buffered human plasma solution (HPLC). As to conditions: for aspirin production / aspirin produced: 50% human plasma.
The conditions of data set [2]: human, 2.4 µM, pH 7.4.
The conditions of data set [3]: cited from earlier work.
The target in data set [4] is horse plasma butyrylcholinesterase (Equus caballus, UniProt P81908). The note with it: cited from earlier work.
Data set [5] concerns human platelet aggregation to arachidonic acid. The experiment in a line: Human platelet aggregation to arachidonic acid in platelet rich plasma. As to conditions: Homo sapiens, platelet rich plasma. It counts as cell-based. On the procedure:
(§1) Blood was collected from healthy volunteers who had not taken any drugs known to affect platelet function for at least 14 days prior to the study. Platelet rich plasma (PRP) and washed platelet suspensions (2.5×10^8 platelets/ml) were prepared from blood as previously described.
(§2) Platelet aggregation was measured by light aggregometry as previously described. Briefly, PRP and washed platelet samples (2.5×10^8/ml) were placed in a whole blood ionized calcium lumi-aggregometer (Chronolog Corp., Havertown, Pa., U.S.A), and (BIO/DATA CORPORATION) and incubated for 10 min at 37° C., with stirring at 900 r.p.m., prior to the addition of aggregating agents. Aggregation was initiated by the addition of agonists, and monitored by Aggro-Link software for at least 6 min. For experiments using inhibitors, aggregation was initiated after 10 min preincubation with these compounds

Data set [6] deals with platelet aggregation in human whole blood. Kind of data set: Whole blood aggregation studies (impedance method). It counts as cell-based. As to conditions: Homo sapiens, Platelet; arachidonic acid; impedance method; read-out: IC50, platelet aggregation towards arachidonic acid in human whole blood. How it is done:
A 500 μl aliquot of blood was mixed with 500 μl of physiological saline and allowed to incubate at 37° C. for 10 mins in the incubation well of a Chrono-Log Whole Blood Aggregometer model 591/592. The sample was then transferred to the assay well, baseline was established and appropriate volume of reagent as above was added. Aggregation was monitored over 6 mins with impedance output recorded on a chart recorder. When testing inhibitors whole blood was pre-incubated with appropriate concentrations of inhibitor in DMSO at 37° C. for a specified length of time before adding the stimulant (10 mins with stirring). Three different aggregating agents, AA (0.5 mM), ADP (10 μM) and Collagen (5 μg/ml) were used. […] DMSO in high concentrations (above 0.25%) can induce a concentration dependent change in platelet cytoplasmic ionised calcium. Before each experiment a control was run using PRP to obtain normal aggregating responses. A sample was also incubated for 10 min at 37° C. with 10 μl DMSO to ensure it was having no inhibitory effect on the aggregation response.

A further data set deals with GPIIb/IIIa. The experiment in a line: Flow cytometry of activated GPIIb/IIIa (PAC-1) on platelets. Type of data set: cell-based, human. How it is done: In order to analyze receptor expression on the surface of individual platelets and to minimize platelet activation caused by sample preparation procedures, no stirring or vortexing steps were used. The abundance of activated GPIIb/IIIa and P-selectin on the surface of platelets in the presence and absence of inhibitors was measured by flow cytometry. Platelet samples were first activated with agonists either collagen or ADP. When platelet aggregation reached 50% maximal light transmission the reaction was terminated by 10-fold dilution with physiologic saline. Resting platelets were used as control. In most of the experiments, platelets were preincubated with inhibitors for 10 min prior to the addition of agonists. Platelet samples were then incubated in the dark without stirring for 5 min at room temperature in the presence of saturating concentrations (10 μg/ml) of P-selectin (CD62P-APC). The activated GPIIb/IIIa platelet receptors were measured using PAC-1 monoclonal antibody at the same concentration as above. PAC-1 specifically recognizes an epitope on the high-affinity GPIIb/IIIa complex of activated platelets at or near the […]. Following incubation, samples were diluted in FACS Flow fluid and analyzed within 5 min using a BD FACSArray (BD Biosciences, Oxford, UK). Flow cytometry was performed on single stained platelet samples as described before^3. The instrument was set up to measure the size (forward scatter), granularity (side scatter) and cell fluorescence. A two-dimensional analysis gate of forward and side scatter was drawn in order to include single platelets and exclude platelet aggregates and microparticles. Antibody binding was measured by analyzing individual platelets for fluorescence. The mean fluorescence intensity was determined after correction for cell autofluorescence. For each sample, the fluorescence was analyzed using a logarithmic scale. Fluorescence histograms were obtained for 10,000 individual events. Data were analyzed using Cytometer RXP software and expressed as a percentage of control fluorescence in arbitrary units.
(In general: In flow cytometry, cells or beads pass a laser one at a time.)

For data set [7] the following is noted: in vivo; cited from earlier work.
Data set [8] concerns the target T1, purified human serum BuChE (Homo sapiens, UniProt P06276).
T1 construct: Purified human serum butyrylcholinesterase (EC 3.1.1.8); purchased Sigma-Aldrich; host or cells: human serum
The experiment in a line: Hydrolysis by purified human serum butyrylcholinesterase. The note with it: Purified human serum (0.15 mg/ml); conc drug 0.12 mM. It counts as in vitro ADME. On the procedure:
Pooled plasma/serum solutions (4 ml) were prepared to the correct strength by dilution of plasma with phosphate buffer pH 7.4 (e.g. for a 10% solution 0.4 ml of plasma/serum was added to 3.6 ml of phosphate buffer pH 7.4). Following equilibration of the plasma/serum sample at 37±0.5° C. 100 μl of a stock solution of test compound in acetonitrile (1×10^−4 M) was added and 250 μl aliquots were removed at specified time intervals. Samples were transferred to 1.5 ml Eppendorf tubes containing 500 μl of a 2% w/v solution of nSO4.7H2O (water:acetonitrile, 1:1). Tubes were vortexed for 2 minutes, then centrifuged at 10,000 rpm for 3 minutes at room temperature. Supernatant was aspirated off and analysed by HPLC. The concentration of test compound and metabolites were determined with reference to calibration curves run on that day in the same concentration range and under the same experimental conditions. In order to mimic conditions during the first passage of the drugs after intestinal absorption selected compounds were incubated in phosphate buffer at 37° C. in the presence of microsomes from human liver (HLM) and intestinal epithelium (HIM). The metabolic fate of the esters under these conditions was also determined by RPHPLC by measuring the concentration of drug and metabolites in the medium as a function of time. The identity of participating enzymes was confirmed by using purified enzyme in the case of plasma (BuChE) and by repeating the hydrolysis experiments in the presence of esterase specific inhibitors—isoOMPA for BuChE and BNPP for carboxylesterase. The BuChE activity of plasma and microsomal samples was determined using the Ellman assay (Ellman et al., 1964).

Data set [9] concerns collagen-induced human platelet aggregation. The experiment in a line: Collagen-induced human platelet aggregation in vitro. It counts as cell-based. On the procedure: as §1, §2
(§3) Collagen at different concentrations (3-5 ug/ml) was also used to induce platelet aggregation. The submaximal concentrations of agonists, i.e. the concentrations that gave approximately 95% of the maximal aggregation were used to study the effects of inhibitors of aggregation. Results were expressed in percent changes in maximal light transmission, with 100% representing light transmission of platelet medium alone.

For data set [10], the system named is ADP-induced platelet aggregation. Kind of data set: ADP-induced platelet aggregation in PRP. It counts as cell-based, human. On the procedure: as §1, §2, §3
[11] abbreviates: phosphate buffered human plasma solutions (Gilmer et al., 2002).

As a reminder, the IC50 is the midpoint of a concentration-inhibition curve.

T1 sequence (P06276 29-602): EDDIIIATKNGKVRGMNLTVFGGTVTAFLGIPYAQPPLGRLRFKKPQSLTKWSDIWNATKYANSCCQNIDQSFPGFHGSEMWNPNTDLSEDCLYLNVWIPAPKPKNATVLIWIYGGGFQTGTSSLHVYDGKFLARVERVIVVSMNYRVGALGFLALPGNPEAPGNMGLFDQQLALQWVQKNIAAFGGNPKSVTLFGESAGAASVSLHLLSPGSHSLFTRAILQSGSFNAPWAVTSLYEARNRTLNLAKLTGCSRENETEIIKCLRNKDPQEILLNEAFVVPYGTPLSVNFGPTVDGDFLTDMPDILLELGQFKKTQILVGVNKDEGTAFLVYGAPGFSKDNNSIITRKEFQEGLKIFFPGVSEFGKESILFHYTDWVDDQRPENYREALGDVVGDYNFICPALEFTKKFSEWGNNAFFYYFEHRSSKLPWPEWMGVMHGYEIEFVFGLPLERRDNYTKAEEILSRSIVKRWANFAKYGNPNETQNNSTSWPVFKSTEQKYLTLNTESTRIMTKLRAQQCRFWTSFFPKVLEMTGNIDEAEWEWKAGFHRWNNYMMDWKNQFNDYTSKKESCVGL
Sequence of horse plasma butyrylcholinesterase (P81908 whole entry): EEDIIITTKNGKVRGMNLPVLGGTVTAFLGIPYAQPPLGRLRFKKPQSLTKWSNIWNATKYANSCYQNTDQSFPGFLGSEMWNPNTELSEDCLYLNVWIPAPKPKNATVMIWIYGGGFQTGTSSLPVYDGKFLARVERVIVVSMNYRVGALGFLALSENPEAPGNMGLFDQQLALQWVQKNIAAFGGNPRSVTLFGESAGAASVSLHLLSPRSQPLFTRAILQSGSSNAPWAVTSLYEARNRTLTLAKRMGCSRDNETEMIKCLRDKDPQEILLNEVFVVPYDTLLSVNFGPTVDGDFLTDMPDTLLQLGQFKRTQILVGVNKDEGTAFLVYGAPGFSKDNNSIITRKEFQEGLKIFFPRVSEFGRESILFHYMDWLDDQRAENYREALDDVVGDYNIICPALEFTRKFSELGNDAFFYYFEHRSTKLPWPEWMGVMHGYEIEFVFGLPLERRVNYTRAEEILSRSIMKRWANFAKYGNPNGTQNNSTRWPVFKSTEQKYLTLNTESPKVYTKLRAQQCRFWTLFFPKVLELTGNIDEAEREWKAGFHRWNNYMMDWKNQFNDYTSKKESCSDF

`CC(=O)Oc1ccccc1C(=O)O[C@@H]1CO[C@H]2[C@@H]1OC[C@@H]2O` [Compound 5-aspirinate, isosorbide-5-aspirinate, reference compound]: the “acts as aspirin prodrug in human plasma” value in data set [1] (human plasma) was “None of these acted as aspirin prodrugs”.

Take `CC(=O)Oc1ccccc1C(=O)O[C@H]1CO[C@H]2[C@@H]1OC[C@H]2OC(=O)c1ccccc1OC(C)=O` [Compound 16, Isosorbide-di-aspirinate]: the “hydrolysis along unproductive salicylate pathway” value in data set [2] stood at 40%. In [3] (setting [11]), the “aspirin produced in phosphate buffered human plasma solutions” value is reported as “approximately 60%” and the “hydrolysed along the unproductive salicylate pathway” value is reported as 40%. In addition, the aspirin generated in data set [4] is 11%.

Consider `CC(=O)Oc1ccccc1C(=O)O[C@H]1CO[C@H]2[C@@H]1OC[C@H]2O` [Compound 17, Isosorbide-2-aspirinate-5-OH, reference compound], for which the “molar % aspirin released in 10% human plasma” value in data set [1] (10% human plasma, pH 7.4, 37° C., peak aspirin as percentage of initial ester concentration in moles) is listed as 2.95%. In [1] (10% human plasma, phosphate buffer pH 7.4, 37° C.), the “Half-life in 10% human plasma” value is reported as 4.08 min. For the same compound, the “acts as aspirin prodrug in human plasma” value is recorded as “is not an aspirin prodrug” in data set [1] (human plasma) and “None of these acted as aspirin prodrugs” in data set [1] (human plasma, listed as 2-aspirinate).

Consider `CC(=O)Oc1ccccc1C(=O)O` [aspirin], for which the IC50 in data set [5] turned out to be 5 µM; in data set [6] it was 25 µM. For the same compound, in the data set with GPIIb/IIIa (concentrations at which aspirin has no effect), the “constitutive platelet glyco-protein expression” value is listed as “has no effect”. The “inhibition of platelets activation” value with GPIIb/IIIa (same concentration like ISAS (2) or nitrate compounds 31-32) is “failed to inhibit platelets activation”. Moreover, the “half-life in dilute plasma” value in data set [3] (dilute plasma) is listed as “around one”. In addition, the “half-life in the body” value in [7] was 20 min.

In data set [1], “Isosorbide-2-aspirinate-5-(2-nitrooxy-methyl)benzoate [Compound 31]” registered an aspirin production of 10.3 µM. The compound further came in with an aspirin produced in [1] (drug 1×10^−4 M) of 10.3 µM.

For “Isosorbide-2-aspirinate-5-(3-nitrooxy-methyl)benzoate [Compound 32]”, the “Aspirin” value in [8] is 15 µM; in data set [1] (50% HP, conc drug 0.25 mM) it was 26 µM. Further, the “Drug disappearace” value in data set [8] worked out at 10 min. In addition, the “Salicylic acid” value in [8] came out at 6 µM; in data set [1] (50% HP, conc drug 0.25 mM), 18 µM; in [1] (80% HP, conc drug 0.1 mM), 9 µM. In data set [1], this compound came in with an aspirin production of 26 µM. Moreover, in data set [1] (drug 2.5×10^−4 M), the aspirin produced came to 26 µM.

The compound “Isosorbide-2-aspirinate-5-(4-nitrooxy-methyl) benzoate [Compound 33]” displayed an aspirin production in data set [1] of 2 µM. In addition, the aspirin produced in data set [1] (drug 1×10^−4 M) is 2 µM.

Consider “Isosorbide-2-aspirinate-5-(p-cyanobenzoate) [Compound 20]”, for which the “potency relative to aspirin, inhibition of collagen-induced human platelet aggregation” value in data set [9] was “more potent than aspirin”. Also, in data set [10], the “potency relative to aspirin, inhibition of ADP-induced platelet aggregation” value is “more potent inhibitor”.

On to “Isosorbide-2-aspirinate-5-[2-methylbenzoate] [Compound 1]”, for which, in data set [1] (human plasma), the “aspirin release (hydrolysis along the aspirin pathway) in human plasma” value is reported as “around 60%”.
